A short description of data set [1]: Tissue distribution of URB937 by LC/MS. It counts as in vivo. Particulars: mice, 1 mg-kg^-1, i.p. The procedure:
Tissue analyses. We performed tissue extractions and liquid chromatography/mass spectrometry analyses of endocannabinoids as described^38. Similar procedures were utilized for the tissue extraction and LC/MS quantification of URB937, as detailed further below.
Tissue extractions Mice were sacrificed with isoflurane and tissues were collected and immediately frozen in liquid nitrogen. Frozen tissues were weighed and homogenized in methanol (1 mL) containing [^2H4]-anandamide, [^2H4]-PEA, [^2H8]-2-AG, and N-cyclohexyl biphenyl-3-ylacetamide as internal standards. Analytes were extracted with chloroform (2 vol) and washed with water (1 vol). Organic phases were collected and dried under nitrogen. The non-fractionated organic extract was used for quantification of URB937. For other analyses the organic extract was fractionated by open-bed silica gel column chromatography, as described^43. Briefly, the extract was dissolved in chloroform and loaded onto small glass columns packed with Silica Gel G (60˜A 230-400 Mesh ASTM; Whatman, Clifton, N.J.). […]
Mobile phase A consisted of methanol containing 0.25% acetic acid, 5 mM ammonium acetate; mobile phase B consisted of water containing 0.25% acetic acid, 5 mM ammonium acetate. […] Na^+ adducts ([M+Na^+]) of analytes and internal standards were monitored in the selective ion-monitoring mode. Limit of quantification was 0.4 pmol.

Data set [2] has as its system carrageenan-induced inflammation. The experiment in a line: Carrageenan-induced hyperalgesia, allodynia and paw edema. The format is in vivo, mice. Conditions: mice, 1 mg-kg^-1, i.p. The procedure:
Behavioral tests. We measured nocifensive responses elicited by i.p. injection of acetic acid in male Swiss and C57B1/6 (wild-type or FAAH-deficient) mice^40, intraplantar injection of carrageenan in male Swiss mice^20, intraplantar injection of formalin in male Sprague-Dawley rats^41, and sciatic nerve ligation in male Swiss mice^39.
Behavioral tests Acetic acid-induced writhing was measured in Swiss mice or C57B1/6 mice (wild-type and FAAH-deficient), as described^40 with minor modifications. Briefly, the mice were acclimated to the experimental room for 2 h. Each animal was injected with acetic acid (150 μL, 0.6% in saline) and placed into a glass cylinder. Abdominal stretches (extension of body and hind limbs) were counted for 20 min, starting 5 min after acetic acid injection. […] Behavior was scored by an observer blinded to the treatment conditions. Formalin-induced nociception was assessed in Sprague-Dawley rats, as described^41. The rats were singly housed and kept in a shared holding room under a 12:12 h light:dark cycle. They were given free access to food and water, and allowed to acclimate to the facility for a week before testing. […] They were acclimated to the observation container (clear plexiglas box, 29×29×25 cm) for 15 min before receiving an injection of formalin (50 μL, 5% in saline) into the dorsal surface of the right hind paw. Immediately after formalin injection, the rats were returned to the observation container and nocifensive behavior was recorded for 60 min with a video camera. Recordings were analyzed by observers blinded to treatment conditions. Nocifensive behavior was measured continuously for 60 min^41. […] Each 5-min bin was analyzed for time spent (1) lifting and (2) licking or biting the injected paw. Nocifensive behavior was analyzed using the composite pain score weighted scores technique (CPS-WST1,2) calculated for the entire time of observation (0-60 min) and, separately, for the first (0-10 min) and second phase (10-60 min) of the behavioral response^46. The area under the curve (AUC) corresponding to CPS-WST1,2 was calculated using the trapezoidal rule. Paw edema was induced in mice by injection into the right hind paws of 50 μL of sterile saline containing 1% λ-carrageenan. Paw volumes were measured using a plethysmometer (Ugo Basile, Milan, Italy). […] Rimonabant and AM630 (1 mg kg^−1, i.p.) were injected 30 min before carrageenan. Mechanical hyperalgesia was assessed by measuring the latency(s) to withdraw the paw from a constant mechanical pressure exerted onto its dorsal surface. A 15-g calibrated glass cylindrical rod (diameter=10 mm) chamfered to a conical point (diameter=3 mm) was used to exert the mechanical force. The weight was suspended vertically between two rings attached to a stand and was free to move vertically. A cutoff time of 3 min was used. Thermal hyperalgesia was assessed as described^47, measuring the latency to withdraw the hind paw from a focused beam of radiant heat (thermal intensity: infrared 3.0) applied to the plantar surface, using a commercial apparatus (Ugo Basile, Varese, Italy). The cutoff time was set at 30 s. Mechanical allodynia was assessed by applying a graded force to the plantar hind paw surface with a Von Frey filament, using a Dynamic Plantar Anesthesiometer (Ugo Basile). The cutoff force was set at 50 g.

With `NC(=O)c1cccc(-c2cc(OC(=O)NC3CCCCC3)ccc2O)c1` [Compound 1b, cyclohexylcarbamic acid 3′-carbamoyl-6-hydroxybiphenyl-3-yl ester], the “URB937 level in brain tissue after systemic administration” value in data set [1] is reported as “undetectable”. Besides, the “carrageenan-induced paw edema, 4 h” value in data set [2] (4 h after carrageenan) is “did not affect paw edema”. In addition, the “carrageenan-induced mechanical and thermal hyperalgesia” value in data set [2] (4 h and 24 h following carrageenan) is on record as “significant decrease”. Also, in data set [2] (24 h after carrageenan), the carrageenan-induced mechanical allodynia entry was “suppressed mechanical allodynia” and the “carrageenan-induced paw edema, 24 h” value is on record as “reversed it”.

The record behind these values is US9187413B2, “Peripherally restricted FAAH inhibitors” (The Regents of the University of California, priority 2010, dated 2015).
